# According to PubChem BioAssay AID2060615 (Molecular Pharmacology Branch, DTP, NCI, 2025):
# Tested on: 496974-208-R-J2-PDC complex spheroids, growth % test/control
# Test: Anticancer human tumor 496974-208-R-J2-PDC patient-derived pancreatic carcinoma cell line growth inhibition [CLK]
# Details: for IC50: curve of first compound; for viability, T/C: stronger effect = lower value
# How it was run: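 Patient-derived tumor cells grown as complex spheroids with HUVEC endothelial cells and mesenchymal stem cells, treated with drug combinations. Concentrations descend in half-log steps from near clinical Cmax, or from 10 microM if Cmax unknown.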
# [1] = second compound 0.0316 µM, first compound 0.0316 µM
# [2] = second compound 0.0316 µM, first compound 0.1 µM
# [3] = second compound 0.0316 µM, first compound 0.316 µM
# [4] = second compound 0.0316 µM, first compound 1 µM
# [5] = second compound 0.0316 µM, first compound 3.16 µM
# [6] = second compound 0.0316 µM, first compound 10 µM
# [7] = second compound 0.1 µM, first compound 0.0316 µM
# [8] = second compound 0.1 µM, first compound 0.1 µM
# [9] = second compound 0.1 µM, first compound 0.316 µM
# [10] = second compound 0.1 µM, first compound 1 µM
# [11] = second compound 0.1 µM, first compound 3.16 µM
# [12] = second compound 0.1 µM, first compound 10 µM
# [13] = second compound 0.316 µM, first compound 0.0316 µM
# [14] = second compound 0.316 µM, first compound 0.1 µM
# [15] = second compound 0.316 µM, first compound 0.316 µM
# [16] = second compound 0.316 µM, first compound 1 µM
# [17] = second compound 0.316 µM, first compound 3.16 µM
# [18] = second compound 0.316 µM, first compound 10 µM
# [19] = second compound 1 µM, first compound 0.0316 µM
# [20] = second compound 1 µM, first compound 0.1 µM
# [21] = second compound 1 µM, first compound 0.316 µM
# [22] = second compound 1 µM, first compound 1 µM
# [23] = second compound 1 µM, first compound 3.16 µM
# [24] = second compound 1 µM, first compound 10 µM
# [25] = second compound 3.16 µM, first compound 0.0316 µM
# [26] = second compound 3.16 µM, first compound 0.1 µM
# [27] = second compound 3.16 µM, first compound 0.316 µM
# [28] = second compound 3.16 µM, first compound 1 µM
# [29] = second compound 3.16 µM, first compound 3.16 µM
# [30] = second compound 3.16 µM, first compound 10 µM
# [31] = second compound 10 µM, first compound 0.0316 µM
# [32] = second compound 10 µM, first compound 0.1 µM
# [33] = second compound 10 µM, first compound 0.316 µM
# [34] = second compound 10 µM, first compound 1 µM
# [35] = second compound 10 µM, first compound 3.16 µM
# [36] = second compound 10 µM, first compound 10 µM
# 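Also: spheroids exposed to the drugs for 7 days before readout.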
# 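For viability, T/C in this document: 100% = DMSO vehicle control wells.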
compound,measurement,setting,value
CC(C)CC(NC(=O)C(Cc1ccccc1)NC(=O)c1cnccn1)B(O)O (stereo unspecified) + CN1CCN(c2cc(C(=O)Nc3cc4cc(-c5cnn(C)c5)ccc4cn3)ccn2)CC1,IC50,second compound 0.0316 µM,4.54 nM
same,IC50,second compound 0.1 µM,3.84 nM
same,IC50,second compound 0.316 µM,< 0.949 nM
same,IC50,second compound 1 µM,< 0.949 nM
same,IC50,second compound 3.16 µM,< 0.949 nM
same,IC50,second compound 10 µM,< 0.949 nM
same,"viability, T/C","second compound 0.0316 µM, first compound 0.000949 µM",104%
same,"viability, T/C","second compound 0.0316 µM, first compound 0.003 µM",77.2%
same,"viability, T/C","second compound 0.0316 µM, first compound 0.00949 µM",1.7%
same,"viability, T/C","second compound 0.0316 µM, first compound 0.03 µM",0.32%
same,"viability, T/C","second compound 0.0316 µM, first compound 0.0949 µM",0.24%
same,"viability, T/C","second compound 0.0316 µM, first compound 0.3 µM",2.04%
same,"viability, T/C","second compound 0.1 µM, first compound 0.000949 µM",85.5%
same,"viability, T/C","second compound 0.1 µM, first compound 0.003 µM",63.1%
same,"viability, T/C","second compound 0.1 µM, first compound 0.00949 µM",2%
same,"viability, T/C","second compound 0.1 µM, first compound 0.03 µM",0.33%
same,"viability, T/C","second compound 0.1 µM, first compound 0.0949 µM",0.27%
same,"viability, T/C","second compound 0.1 µM, first compound 0.3 µM",3.67%
same,"viability, T/C","second compound 0.316 µM, first compound 0.000949 µM",6.64%
same,"viability, T/C","second compound 0.316 µM, first compound 0.003 µM",5.3%
same,"viability, T/C","second compound 0.316 µM, first compound 0.00949 µM",0.71%
same,"viability, T/C","second compound 0.316 µM, first compound 0.03 µM",0.38%
same,"viability, T/C","second compound 0.316 µM, first compound 0.0949 µM",0.51%
same,"viability, T/C","second compound 0.316 µM, first compound 0.3 µM",2.72%
same,"viability, T/C","second compound 1 µM, first compound 0.000949 µM",0.49%
same,"viability, T/C","second compound 1 µM, first compound 0.003 µM",1.07%
same,"viability, T/C","second compound 1 µM, first compound 0.00949 µM",0.68%
same,"viability, T/C","second compound 1 µM, first compound 0.03 µM",0.63%
same,"viability, T/C","second compound 1 µM, first compound 0.0949 µM",2.26%
same,"viability, T/C","second compound 1 µM, first compound 0.3 µM",1.33%
same,"viability, T/C","second compound 3.16 µM, first compound 0.000949 µM",0.5%
same,"viability, T/C","second compound 3.16 µM, first compound 0.003 µM",2.35%
same,"viability, T/C","second compound 3.16 µM, first compound 0.00949 µM",0.66%
same,"viability, T/C","second compound 3.16 µM, first compound 0.03 µM",0.53%
same,"viability, T/C","second compound 3.16 µM, first compound 0.0949 µM",1.54%
same,"viability, T/C","second compound 3.16 µM, first compound 0.3 µM",2.08%
same,"viability, T/C","second compound 10 µM, first compound 0.000949 µM",0.27%
same,"viability, T/C","second compound 10 µM, first compound 0.003 µM",0.26%
same,"viability, T/C","second compound 10 µM, first compound 0.00949 µM",1.83%
same,"viability, T/C","second compound 10 µM, first compound 0.03 µM",0.24%
same,"viability, T/C","second compound 10 µM, first compound 0.0949 µM",0.3%
same,"viability, T/C","second compound 10 µM, first compound 0.3 µM",2.65%
CC1COCCN1c1cc(C2(S(C)(=N)=O)CC2)nc(-c2ccnc3[nH]ccc23)n1 (stereo unspecified) + CN1CCN(c2cc(C(=O)Nc3cc4cc(-c5cnn(C)c5)ccc4cn3)ccn2)CC1,IC50,second compound 0.0316 µM,3820 nM
same,IC50,second compound 0.1 µM,1930 nM
same,IC50,second compound 0.316 µM,< 31.6 nM
same,IC50,second compound 1 µM,< 31.6 nM
same,IC50,second compound 3.16 µM,< 31.6 nM
same,IC50,second compound 10 µM,< 31.6 nM
same,"viability, T/C",[1],107%
same,"viability, T/C",[2],99.8%
same,"viability, T/C",[3],102%
same,"viability, T/C",[4],82.8%
same,"viability, T/C",[5],53.3%
same,"viability, T/C",[6],34.5%
same,"viability, T/C",[7],94.5%
same,"viability, T/C",[8],83.4%
same,"viability, T/C",[9],73.3%
same,"viability, T/C",[10],70.1%
same,"viability, T/C",[11],35.6%
same,"viability, T/C",[12],22.4%
same,"viability, T/C",[13],7.43%
same,"viability, T/C",[14],5.54%
same,"viability, T/C",[15],5.89%
same,"viability, T/C",[16],5.38%
same,"viability, T/C",[17],4.22%
same,"viability, T/C",[18],5.13%
same,"viability, T/C",[19],0.53%
same,"viability, T/C",[20],0.67%
same,"viability, T/C",[21],2.64%
same,"viability, T/C",[22],0.45%
same,"viability, T/C",[23],0.65%
same,"viability, T/C",[24],1.19%
same,"viability, T/C",[25],0.65%
same,"viability, T/C",[26],0.51%
same,"viability, T/C",[27],1.73%
same,"viability, T/C",[28],0.46%
same,"viability, T/C",[29],0.61%
same,"viability, T/C",[30],0.43%
same,"viability, T/C",[31],0.36%
same,"viability, T/C",[32],0.42%
same,"viability, T/C",[33],1.59%
same,"viability, T/C",[34],0.41%
same,"viability, T/C",[35],1.27%
same,"viability, T/C",[36],1.47%
O=C(c1cc(Cc2n[nH]c(=O)c3ccccc23)ccc1F)N1CCN(C(=O)C2CC2)CC1 + CN1CCN(c2cc(C(=O)Nc3cc4cc(-c5cnn(C)c5)ccc4cn3)ccn2)CC1,IC50,second compound 0.0316 µM,> 10000 nM
same,IC50,second compound 0.1 µM,> 10000 nM
same,IC50,second compound 0.316 µM,< 31.6 nM
same,IC50,second compound 1 µM,< 31.6 nM
same,IC50,second compound 3.16 µM,< 31.6 nM
same,IC50,second compound 10 µM,< 31.6 nM
same,"viability, T/C",[1],98.7%
same,"viability, T/C",[2],96%
same,"viability, T/C",[3],87.4%
same,"viability, T/C",[4],97.7%
same,"viability, T/C",[5],88.3%
same,"viability, T/C",[6],88.2%
same,"viability, T/C",[7],82.7%
same,"viability, T/C",[8],76%
same,"viability, T/C",[9],80.2%
same,"viability, T/C",[10],79.4%
same,"viability, T/C",[11],83.2%
same,"viability, T/C",[12],64.7%
same,"viability, T/C",[13],5.96%
same,"viability, T/C",[14],5.32%
same,"viability, T/C",[15],5.38%
same,"viability, T/C",[16],6.21%
same,"viability, T/C",[17],5.51%
same,"viability, T/C",[18],6.01%
same,"viability, T/C",[19],0.53%
same,"viability, T/C",[20],0.75%
same,"viability, T/C",[21],1.95%
same,"viability, T/C",[22],0.47%
same,"viability, T/C",[23],1.71%
same,"viability, T/C",[24],1.78%
same,"viability, T/C",[25],0.81%
same,"viability, T/C",[26],0.43%
same,"viability, T/C",[27],0.55%
same,"viability, T/C",[28],0.48%
same,"viability, T/C",[29],0.71%
same,"viability, T/C",[30],4%
same,"viability, T/C",[31],0.41%
same,"viability, T/C",[32],0.24%
same,"viability, T/C",[33],0.82%
same,"viability, T/C",[34],0.42%
same,"viability, T/C",[35],2.08%
same,"viability, T/C",[36],2.09%
